Test system: 439559-082-T-J2-PDC spheroid viability
Assay: Anticancer human tumor 439559-082-T-J2-PDC patient-derived colon adenocarcinoma cell line growth inhibition [POLQ]
Settings: spheroids with HUVEC and MSC; for IC50: curve of first compound; for viability, T/C: stronger effect = lower value
Procedure, shortened: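 Three-cell-type spheroids modelling solid tumor plus stroma served as the readout system; POL inhibitors were tested individually and in combination, concentration ranges set by clinical Cmax where known.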
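Further: spheroids exposed to compounds for seven days before readout.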
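Wherever viability, T/C is given: 100% = DMSO vehicle control viability.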

CCc1c2c(nc3ccc(O)cc13)-c1cc3c(c(=O)n1C2)COC(=O)[C@]3(O)CC + COC1C(OC(N)=O)C(O)C(Oc2ccc3c(O)c(NC(=O)c4ccc(O)c(CC=C(C)C)c4)c(=O)oc3c2C)OC1(C)C gave an IC50 (second compound 0.0316 µM) of 487 nM, an IC50 (second compound 0.1 µM) of 401 nM and an IC50 (second compound 0.316 µM) of 458 nM. It also gave an IC50 (second compound 1 µM) of 377 nM, an IC50 (second compound 3.16 µM) of 332 nM and an IC50 (second compound 10 µM) of 287 nM. It also gave a viability, T/C (second compound 0.0316 µM, first compound 0.00316 µM) of 90.4%, a viability, T/C (second compound 0.0316 µM, first compound 0.01 µM) of 83.8% and a viability, T/C (second compound 0.0316 µM, first compound 0.0316 µM) of 69.8%. For the same compound, the viability, T/C (second compound 0.0316 µM, first compound 0.1 µM) was 69.3%, the viability, T/C (second compound 0.0316 µM, first compound 0.316 µM) was 58.9% and the viability, T/C (second compound 0.0316 µM, first compound 1 µM) was 39%. It also gave a viability, T/C (second compound 0.1 µM, first compound 0.00316 µM) of 97.3%, a viability, T/C (second compound 0.1 µM, first compound 0.01 µM) of 84.3% and a viability, T/C (second compound 0.1 µM, first compound 0.0316 µM) of 70.7%. For the same compound, the viability, T/C (second compound 0.1 µM, first compound 0.1 µM) was 66.7%, the viability, T/C (second compound 0.1 µM, first compound 0.316 µM) was 57.7% and the viability, T/C (second compound 0.1 µM, first compound 1 µM) was 36.6%. For the same compound, the viability, T/C (second compound 0.316 µM, first compound 0.00316 µM) was 98.5%, the viability, T/C (second compound 0.316 µM, first compound 0.01 µM) was 92.2% and the viability, T/C (second compound 0.316 µM, first compound 0.0316 µM) was 73.1%. The viability, T/C (second compound 0.316 µM, first compound 0.1 µM) was 67.9%, the viability, T/C (second compound 0.316 µM, first compound 0.316 µM) was 58.6% and the viability, T/C (second compound 0.316 µM, first compound 1 µM) was 38.5%. The viability, T/C (second compound 1 µM, first compound 0.00316 µM) was 95.8%, the viability, T/C (second compound 1 µM, first compound 0.01 µM) was 83.7% and the viability, T/C (second compound 1 µM, first compound 0.0316 µM) was 65.4%. It also gave a viability, T/C (second compound 1 µM, first compound 0.1 µM) of 63%, a viability, T/C (second compound 1 µM, first compound 0.316 µM) of 59.6% and a viability, T/C (second compound 1 µM, first compound 1 µM) of 36.8%. The viability, T/C (second compound 3.16 µM, first compound 0.00316 µM) was 90.5%, the viability, T/C (second compound 3.16 µM, first compound 0.01 µM) was 81.3% and the viability, T/C (second compound 3.16 µM, first compound 0.0316 µM) was 71.8%. The viability, T/C (second compound 3.16 µM, first compound 0.1 µM) was 62%, the viability, T/C (second compound 3.16 µM, first compound 0.316 µM) was 52.7% and the viability, T/C (second compound 3.16 µM, first compound 1 µM) was 36.8%. For the same compound, the viability, T/C (second compound 10 µM, first compound 0.00316 µM) was 80.8%, the viability, T/C (second compound 10 µM, first compound 0.01 µM) was 82% and the viability, T/C (second compound 10 µM, first compound 0.0316 µM) was 64.6%. For the same compound, the viability, T/C (second compound 10 µM, first compound 0.1 µM) was 61.5%, the viability, T/C (second compound 10 µM, first compound 0.316 µM) was 53.1% and the viability, T/C (second compound 10 µM, first compound 1 µM) was 28.3%.

Source: PubChem BioAssay AID1963841 (Molecular Pharmacology Branch, DTP, NCI, 2024)
